The values below come from publication PMC12175177 (Frontiers in Pharmacology, 2025).

Structures can show the parent of a compound that is named as a salt. Where two headings read alike, the source gives them in different places.

Holding throughout (format): cell-based
Experiment [1] concerns SARS-CoV-2 A2.5 variant (M2169). To be noted: at MNCC, […], 48 h, 1x.
The subject of experiment [2] is SARS-CoV-2 Delta variant (SEQ203). As to conditions: for % inhibition Vero E6 Delta MOI 0.0001 / % inhibition Vero E6 Delta MOI 0.01: at MNCC, 48 h; for % inhibition Vero E6 Delta MOI 0.0001: 1x; for % inhibition Vero E6 Delta MOI 0.01: mean 2x.
Experiment [3] shares this test system. To be noted: at MNCC, 48 h, 1x.
In experiment [4] the test system is SARS-CoV-2 A2.5 variant (M2169). To be noted: at MNCC; […]; 48 h; mean 2x.

Consider Ferroquine [Ferroquine (FQ)], for which the “% inhibition Vero E6 A2.5 MOI 0.01” value in experiment [1] amounted to 12%. Further, in experiment [2], the “% inhibition Vero E6 Delta MOI 0.0001” value worked out at 23% and the “% inhibition Vero E6 Delta MOI 0.01” value was 7%. In addition, the “% inhibition Calu-3 Delta MOI 0.01” value in experiment [3] is 4%.

With `CCO[C@H]1O[C@@H]2O[C@@]3(C)CC[C@H]4[C@H](C)CC[C@@H]([C@H]1C)[C@@]24OO3` [Arteether (AE), Arteether], the “% inhibition Calu-3 A2.5 MOI 0.01” value in experiment [4] was “showed activity”. Besides, the “% inhibition Vero E6 A2.5 MOI 0.01” value in experiment [1] stood at 10%. In experiment [2], the “antiviral inhibition at MOI = 0.00001” value is recorded as ≥ 20%, the “% inhibition Vero E6 Delta MOI 0.0001” value came out at 23% and the “% inhibition Vero E6 Delta MOI 0.01” value was determined as 8%. Besides, the “% inhibition Calu-3 Delta MOI 0.01” value in experiment [3] came to 5%.

With `C=C[C@H]1C[N@@]2CC[C@H]1C[C@H]2[C@H](O)c1ccnc2ccc(OC)cc12` [Quinine Sulfate (QN), Quinine Sulfate], the “% inhibition Calu-3 A2.5 MOI 0.01” value in experiment [4] was 0%. In addition, in experiment [1], the “% inhibition Vero E6 A2.5 MOI 0.01” value was 18%. For the same molecule, in experiment [2], the “% inhibition Vero E6 Delta MOI 0.0001” value stood at 0% and the “% inhibition Vero E6 Delta MOI 0.01” value turned out to be 9%.

In the case of `COc1c(C)c2c(c(O)c1C/C=C(\C)CCC(=O)O)C(=O)OC2` [Mycophenolic acid (MYC), Mycophenolic acid], the “% inhibition Calu-3 A2.5 MOI 0.01” value in experiment [4] turned out to be 11%. Besides, in experiment [1], the “% inhibition Vero E6 A2.5 MOI 0.01” value is 0%. For the same molecule, in experiment [2], the “antiviral inhibition at MOI = 0.00001” value was ≥ 20%, the “% inhibition Vero E6 Delta MOI 0.0001” value is recorded as 40% and the “% inhibition Vero E6 Delta MOI 0.01” value is on record as 7%. Moreover, the “% inhibition Calu-3 Delta MOI 0.01” value in experiment [3] came to 5%.

In the case of `CN(C)C(=O)COC(=O)Cc1ccc(OC(=O)c2ccc(NC(=N)N)cc2)cc1` [Camostat mesylate (CAM), Camostat mesylate], the “% inhibition Calu-3 A2.5 MOI 0.01” value in experiment [4] came out at 16%. The “% inhibition Vero E6 A2.5 MOI 0.01” value in experiment [1] is listed as 2%. Further, in experiment [2], the “% inhibition Vero E6 Delta MOI 0.0001” value was found to be 0% and the “% inhibition Vero E6 Delta MOI 0.01” value came out at 7%. Further, the “% inhibition Calu-3 Delta MOI 0.01” value in experiment [3] turned out to be 4%.

In the case of `CCCCN(CCCC)CC(O)c1cc(Cl)cc2c1-c1ccc(Cl)cc1/C2=C/c1ccc(Cl)cc1` (stereo not drawn) [Lumefantrine (LUM), Lumefantrine], in experiment [4], the “% inhibition Calu-3 A2.5 MOI 0.01” value was determined as 19%. Further, in experiment [2], the “% inhibition Vero E6 Delta MOI 0.0001” value is 0% and the “% inhibition Vero E6 Delta MOI 0.01” value came out at 14%.

In the case of `COc1cc(C)c2c(Oc3cccc(C(F)(F)F)c3)c(OC)cc(NC(C)CCCN)c2n1` (stereo not drawn) [TQ, tafenoquine], the “viral inhibition, secondary screening, Delta” value in experiment [2] is on record as “at least 20%”.

For the molecule “Ivermectin [Ivermectin Liquida (IVM-li)]”, the “% inhibition Vero E6 A2.5 MOI 0.01” value is given as 52% in experiment [1] and ≥ 20% in experiment [1] (listed as IVM-li). The “% inhibition Vero E6 Delta MOI 0.0001” value in experiment [2] was 0%. In addition, in experiment [2], the “% inhibition Vero E6 Delta MOI 0.01” value was 15%. Besides, the “% inhibition Calu-3 Delta MOI 0.01” value in experiment [3] was 45%; in experiment [3] (listed as IVM-l), ≥ 20%.

As to `CCN(CC)Cc1cc(Nc2ccnc3cc(Cl)ccc23)ccc1O` [Amodiaquine (AQ), Amodiaquine], the “% inhibition Calu-3 A2.5 MOI 0.01” value in experiment [4] was “showed activity”. The “% inhibition Vero E6 A2.5 MOI 0.01” value in experiment [1] was “showed activity”. In experiment [2], the “antiviral inhibition at MOI = 0.00001” value is given as ≥ 20%, the “% inhibition Vero E6 Delta MOI 0.0001” value was 42% and the “% inhibition Vero E6 Delta MOI 0.01” value turned out to be 11%.

Turning to `CCN(CCO)CCCC(C)Nc1ccnc2cc(Cl)ccc12` (stereo not drawn) [Hydroxychloroquine Minsa (HCQ-m), Hydroxychloroquine], the “% inhibition Vero E6 A2.5 MOI 0.01” value in experiment [1] is on record as 0%. Further, in experiment [2], the “% inhibition Vero E6 Delta MOI 0.0001” value came out at 43% and the “% inhibition Vero E6 Delta MOI 0.01” value is recorded as 18%.

As to `C[C@H]1[C@H](OC(=O)CCC(=O)O)O[C@@H]2O[C@@]3(C)CC[C@H]4[C@H](C)CC[C@@H]1[C@@]24OO3` [Artesunic acid (AS), Artesunic acid], the “% inhibition Vero E6 A2.5 MOI 0.01” value in experiment [1] was 45%. Further, in experiment [2], the “% inhibition Vero E6 Delta MOI 0.0001” value is reported as 37% and the “% inhibition Vero E6 Delta MOI 0.01” value was 18%. Moreover, in experiment [3], the “% inhibition Calu-3 Delta MOI 0.01” value is given as 42%. The “% inhibition Calu-3 Delta MOI 0.01” value in experiment [3] (listed as AS) is listed as “effective”.

In the case of `C[C@H]1[C@@H](OCc2ccc(C(=O)O)cc2)O[C@@H]2O[C@@]3(C)CC[C@H]4[C@H](C)CC[C@@H]1[C@@]24OO3` [Artelinic Acid (AA), Artelinic Acid], the “% inhibition Calu-3 A2.5 MOI 0.01” value in experiment [4] is 14%. For the same molecule, the “% inhibition Vero E6 A2.5 MOI 0.01” value in experiment [1] was found to be 0%. For the same molecule, in experiment [2], the “% inhibition Vero E6 Delta MOI 0.0001” value worked out at 0% and the “% inhibition Vero E6 Delta MOI 0.01” value came out at 5%. The “% inhibition Calu-3 Delta MOI 0.01” value in experiment [3] turned out to be 7%.

In the case of `O=C(Nc1cccc(C2=NCCN2)c1)Nc1cccc(C2=NCCN2)c1` [Imidocarb (IMI), Imidocarb], the “% inhibition Calu-3 A2.5 MOI 0.01” value in experiment [4] is on record as 14%. In experiment [2], the “% inhibition Vero E6 Delta MOI 0.0001” value is 0% and the “% inhibition Vero E6 Delta MOI 0.01” value came to 11%. Moreover, the “% inhibition Calu-3 Delta MOI 0.01” value in experiment [3] is on record as 16%.

On to `COc1ccc2nc3cc(Cl)ccc3c(Nc3cc(CN4CCCC4)c(O)c(CN4CCCC4)c3)c2n1` [Pyranoridine (PNO), Pyranoridine], for which the “% inhibition Calu-3 A2.5 MOI 0.01” value in experiment [4] was found to be 1%. Moreover, in experiment [1], the “% inhibition Vero E6 A2.5 MOI 0.01” value came to 0%. In addition, in experiment [2], the “antiviral inhibition at MOI = 0.00001” value was ≥ 20%, the “% inhibition Vero E6 Delta MOI 0.0001” value was 43% and the “% inhibition Vero E6 Delta MOI 0.01” value came to 6%. Besides, the “% inhibition Calu-3 Delta MOI 0.01” value in experiment [3] is recorded as -1%.

As to `C[C@H]1[C@H](N2CCS(=O)(=O)CC2)O[C@@H]2O[C@@]3(C)CC[C@H]4[C@H](C)CC[C@@H]1[C@@]24OO3` [Artemisone (ASO), Artemisone], the “% inhibition Vero E6 A2.5 MOI 0.01” value in experiment [1] is given as “showed activity”. In experiment [2], the “% inhibition Vero E6 Delta MOI 0.0001” value came out at 15% and the “% inhibition Vero E6 Delta MOI 0.01” value was determined as 10%. In addition, the “% inhibition Calu-3 Delta MOI 0.01” value in experiment [3] is recorded as 16%.

On to `CN(C)c1ccc2nc3ccc(=[N+](C)C)cc-3sc2c1` [Methylene Blue Injection (MBi), Methylene Blue], for which the “% inhibition Calu-3 A2.5 MOI 0.01” value in experiment [4] is given as 18%. The “% inhibition Vero E6 A2.5 MOI 0.01” value in experiment [1] stood at 2%. For the same molecule, in experiment [2], the “% inhibition Vero E6 Delta MOI 0.0001” value is reported as 16% and the “% inhibition Vero E6 Delta MOI 0.01” value was 10%.

`OC(c1cc(C(F)(F)F)nc2c(C(F)(F)F)cccc12)C1CCCCN1` (stereo not drawn) [Mefloquine (MQ), Mefloquine]: the “% inhibition Calu-3 A2.5 MOI 0.01” value in experiment [4] turned out to be 8%. Besides, the “% inhibition Vero E6 A2.5 MOI 0.01” value in experiment [1] is given as 16%. In addition, in experiment [2], the “antiviral inhibition at MOI = 0.00001” value is ≥ 20%, the “% inhibition Vero E6 Delta MOI 0.0001” value is given as 45% and the “% inhibition Vero E6 Delta MOI 0.01” value worked out at 6%. For the same molecule, the “% inhibition Calu-3 Delta MOI 0.01” value in experiment [3] is recorded as 0%.

Take `CN1CCN(CCCN2c3ccccc3Sc3ccc(Cl)cc32)CC1` [Prochlorperazine (PCPZ), Prochlorperazine]: the “% inhibition Calu-3 A2.5 MOI 0.01” value in experiment [4] was determined as 16%. The “% inhibition Vero E6 A2.5 MOI 0.01” value in experiment [1] was determined as 0%. In addition, in experiment [2], the “% inhibition Vero E6 Delta MOI 0.0001” value is 6% and the “% inhibition Vero E6 Delta MOI 0.01” value was determined as 6%. Moreover, the “% inhibition Calu-3 Delta MOI 0.01” value in experiment [3] was 0%.

Turning to “Ivermectin [Ivermectin Farmacia (IVM-f)]”, in experiment [4], the “% inhibition Calu-3 A2.5 MOI 0.01” value is 16%. Further, in experiment [2], the “antiviral inhibition at MOI = 0.00001” value is ≥ 20%, the “% inhibition Vero E6 Delta MOI 0.0001” value stood at 44% and the “% inhibition Vero E6 Delta MOI 0.01” value is 5%. Besides, the “% inhibition Calu-3 Delta MOI 0.01” value in experiment [3] was 5%.
